# Test results: ChEMBL document CHEMBL2069197 (ACS Med Chem Lett, 2012); call rule not given here
# Key:
# [1] = Half life in aqueous media at pH 7; type: physicochemical; settings: for half-life: aqueous media; for t1/2: buffer
# [2] = Stability in cortical neurons assessed as drug metabolism at 5 uM; type: ADME; settings: cortical neurone
# Rattus norvegicus [3] = assay: Drug metabolism in Sprague-Dawley rat plasma assessed as progesterone formation at 4 mg/kg, iv; type: ADME, organism-based; set-up: dose 4 mg/kg, route intravenous; settings: in vivo
# in vivo = settings: Sprague-Dawley, rat, plasma, iv, 4 mg/kg
# Description: Half life in Sprague-Dawley rat plasma at 4 mg/kg, iv
# [4] = Neuroprotective activity in cortical neurons assessed as reduction in glutamate-induced cell death at 5 uM incubated for 24 hrs prior to glutamate-challenge measured after 24 hrs by MTT assay; type: functional, Cortical neurone; set-up: scale not given: the % may be the effect or the level left
# [5] = Aqueous solubility of the compound in phosphate buffered saline after 90 mins by laser nephelometry at pH 4; type: physicochemical
# Rattus norvegicus [6] = assay: Neuroprotective activity in rat assessed as reduction in bilateral cortical contusion-induced cerebral edema at 4 mg/kg, iv administered as single dose 1 hr post-injury measured after 24 hrs relative to untreated; type: functional; set-up: scale not given: the % may be the effect or the level left
# [7] = Aqueous solubility of the compound in phosphate buffered saline after 90 mins by laser nephelometry at pH 7.4; type: physicochemical
# Liver = assay: Metabolic stability in rat liver S9 fraction assessed as compound remaining; type: ADME, subcellular
# [8] = Drug metabolism in rat liver S9 fraction assessed as progesterone formation; type: ADME, subcellular
# Rattus norvegicus [9] = assay: Drug metabolism in Sprague-Dawley rat assessed as free oxime formation at 10 mg/kg, iv administered as single dose by LC-MS/MS analysis; type: ADME, organism-based; set-up: dose 10 mg/kg, route intravenous; settings: in vivo
# Rattus norvegicus [10] = assay: Metabolic stability in Sprague-Dawley rat assessed as compound remaining at 10 mg/kg, iv administered as single dose by LC-MS/MS analysis; type: ADME, organism-based; set-up: dose 10 mg/kg, route intravenous; settings: in vivo
# [11] = Drug metabolism in rat liver S9 fraction assessed as free oxime formation; type: ADME, subcellular
# Rattus norvegicus [12] = assay: Neuroprotective activity in rat assessed as reduction in bilateral cortical contusion-induced cerebral edema at 8 mg/kg, ip administered at 1 hr post-injury followed by 8 mg/kg, sc administered 6 hrs post-injury measured after 24 hrs relative to untreated control; type: functional; set-up: scale not given: the % may be the effect or the level left
# Plasma [13] = assay: Drug metabolism rat plasma assessed as free oxime formation at 10 uM by LC-MS/MS analysis; type: ADME, cell-free
# Rattus norvegicus [14] = assay: Drug metabolism in Sprague-Dawley rat assessed as compound remaining at 10 mg/kg, im administered as single dose by LC-MS/MS analysis; type: ADME, organism-based; set-up: dose 10 mg/kg, route intramuscular; settings: in vivo
# Rattus norvegicus [15] = assay: Drug metabolism in Sprague-Dawley rat assessed as progesterone formation at 10 mg/kg, iv administered as single dose by LC-MS/MS analysis; type: ADME, organism-based; set-up: dose 10 mg/kg, route intravenous; settings: in vivo
# Rattus norvegicus [16] = assay: Drug metabolism in Sprague-Dawley rat assessed as free oxime formation at 10 mg/kg, im administered as single dose by LC-MS/MS analysis; type: ADME, organism-based; set-up: dose 10 mg/kg, route intramuscular; settings: in vivo
# Rattus norvegicus [17] = assay: Drug metabolism in Sprague-Dawley rat assessed as progesterone formation at 10 mg/kg, im administered as single dose by LC-MS/MS analysis; type: ADME, organism-based; set-up: dose 10 mg/kg, route intramuscular; settings: in vivo
# Plasma [18] = assay: Drug metabolism human plasma assessed as free oxime formation at 10 uM by LC-MS/MS analysis; type: ADME, cell-free
# [19] = Neuroprotective activity in cortical neurons assessed as reduction in glutamate-induced cell death at 10 uM incubated for 24 hrs prior to glutamate-challenge measured after 24 hrs by MTT assay; type: functional, Cortical neurone; set-up: scale not given: the % may be the effect or the level left
# [20] = Neuroprotective activity in cortical neurons assessed as reduction in glutamate-induced cell death at 1 uM incubated for 24 hrs prior to glutamate-challenge measured after 24 hrs by MTT assay; type: functional, Cortical neurone; set-up: scale not given: the % may be the effect or the level left
# [21] = Half life in human plasma; type: ADME, cell-free
# [22] = Neuroprotective activity in cortical neurons assessed as reduction in glutamate-induced cell death at 20 uM incubated for 24 hrs prior to glutamate-challenge measured after 24 hrs by MTT assay; type: functional, Cortical neurone; set-up: scale not given: the % may be the effect or the level left
Compound,half-life [1] [h],Stability [2],Activity [4] [%],solubility kinetic at 1.5 h [5] [µM],solubility kinetic at 1.5 h [7] [µM],further results
CC(=O)[C@H]1CC[C@H]2[C@@H]3CCC4=C/C(=N/O)CC[C@]4(C)[C@H]3CC[C@]12C,> 240,Stable,21,< 45,< 45,Drug metabolism (Rattus norvegicus [3]): Not Active; half-life (in vivo): 2.7 h; Activity (Rattus norvegicus [6]): 60%
C/C(=N\O)[C@H]1CC[C@H]2[C@@H]3CCC4=CC(=O)CC[C@]4(C)[C@H]3CC[C@]12C,,Stable,,,,Stability (Liver): Stable; Drug metabolism [8]: Not Active
CO/N=C(\C)[C@H]1CC[C@H]2[C@@H]3CCC4=CC(=O)CC[C@]4(C)[C@H]3CC[C@]12C,> 240,Stable,,< 25,< 25,
C/C(=N\OCCN1CCOCC1)[C@H]1CC[C@H]2[C@@H]3CCC4=CC(=O)CC[C@]4(C)[C@H]3CC[C@]12C,> 240,Stable,26,> 450,108,
CC(=O)O/N=C(\C)[C@H]1CC[C@H]2[C@@H]3CCC4=CC(=O)CC[C@]4(C)[C@H]3CC[C@]12C,,Stable,,180,100,
C/C(=N\OC(=O)[C@@H](N)C(C)C)[C@H]1CC[C@H]2[C@@H]3CCC4=CC(=O)CC[C@]4(C)[C@H]3CC[C@]12C.Cl,11.3,Stable,24,> 645,146,Drug metabolism (Rattus norvegicus [9]): Active; Stability (Rattus norvegicus [10]): Unstable; Drug metabolism [11]: Active; Activity (Rattus norvegicus [12]): 56%; Drug metabolism (Plasma [13]): Active; Stability (Rattus norvegicus [14]): Unstable; Drug metabolism (Rattus norvegicus [15]): Active; Drug metabolism [8]: Active; Drug metabolism (Rattus norvegicus [16]): Active; Drug metabolism (Rattus norvegicus [17]): Not Active; Drug metabolism (Plasma [18]): Active
C/C(=N\OC(=O)[C@@H]1CCCN1)[C@H]1CC[C@H]2[C@@H]3CCC4=CC(=O)CC[C@]4(C)[C@H]3CC[C@]12C,,Stable,21,395,34,Activity [19]: 33%
C/C(=N\OC(=O)[C@@H]1CCC[N+]1(C)C)[C@H]1CC[C@H]2[C@@H]3CCC4=CC(=O)CC[C@]4(C)[C@H]3CC[C@]12C.[I-],0.833,Stable,,345,51,
C/C(=N\OC(=O)CN(C)C)[C@H]1CC[C@H]2[C@@H]3CCC4=CC(=O)CC[C@]4(C)[C@H]3CC[C@]12C,,Stable,,449,171,
C/C(=N\OC(=O)C[N+](C)(C)C)[C@H]1CC[C@H]2[C@@H]3CCC4=CC(=O)CC[C@]4(C)[C@H]3CC[C@]12C.[I-],0.933,Stable,,> 540,45,
C/C(=N\OC(=O)CN1CCOCC1)[C@H]1CC[C@H]2[C@@H]3CCC4=CC(=O)CC[C@]4(C)[C@H]3CC[C@]12C,,Stable,,215,215,
C/C(=N\OC(=O)CN1CCN(C)CC1)[C@H]1CC[C@H]2[C@@H]3CCC4=CC(=O)CC[C@]4(C)[C@H]3CC[C@]12C,70.6,Stable,,153,145,
C/C(=N\OC(=O)c1cccnc1)[C@H]1CC[C@H]2[C@@H]3CCC4=CC(=O)CC[C@]4(C)[C@H]3CC[C@]12C,,Stable,20,< 35,< 35,t1/2 [1]: ND(Insoluble)
C/C(=N\OC(=O)c1ccc[n+](C)c1)[C@H]1CC[C@H]2[C@@H]3CCC4=CC(=O)CC[C@]4(C)[C@H]3CC[C@]12C.[I-],3.1,Stable,0,349,212,Activity [20]: 14%
C/C(=N\OC(=O)c1ccc(CN)cc1)[C@H]1CC[C@H]2[C@@H]3CCC4=CC(=O)CC[C@]4(C)[C@H]3CC[C@]12C.Cl,,Stable,,< 30,< 30,t1/2 [1]: ND(Insoluble)
C/C(=N\OC(=O)c1ccc(CN2CCN(C)CC2)cc1)[C@H]1CC[C@H]2[C@@H]3CCC4=CC(=O)CC[C@]4(C)[C@H]3CC[C@]12C,,Stable,,< 30,< 30,t1/2 [1]: ND(Insoluble)
C/C(=N\OC(=O)C1CCNCC1)[C@H]1CC[C@H]2[C@@H]3CCC4=CC(=O)CC[C@]4(C)[C@H]3CC[C@]12C.Cl,94.8,Stable,4,247,247,Activity [19]: 24%
C/C(=N\OC(=O)C1CCN(C)CC1)[C@H]1CC[C@H]2[C@@H]3CCC4=CC(=O)CC[C@]4(C)[C@H]3CC[C@]12C,,Stable,,> 660,108,
C/C(=N\OC(=O)C1CC[N+](C)(C)CC1)[C@H]1CC[C@H]2[C@@H]3CCC4=CC(=O)CC[C@]4(C)[C@H]3CC[C@]12C.[I-],70.6,Stable,0,> 500,> 500,
C/C(=N\OC(=O)[C@@H]1CCCNC1)[C@H]1CC[C@H]2[C@@H]3CCC4=CC(=O)CC[C@]4(C)[C@H]3CC[C@]12C.Cl,38.5,Stable,,> 500,428,
C/C(=N\OC(=O)[C@H]1CCCNC1)[C@H]1CC[C@H]2[C@@H]3CCC4=CC(=O)CC[C@]4(C)[C@H]3CC[C@]12C.Cl,40.8,Stable,,314,314,
CC(=O)[C@H]1CC[C@H]2[C@@H]3CCC4=C/C(=N/OC(=O)[C@@H](N)C(C)C)CC[C@]4(C)[C@H]3CC[C@]12C.Cl,10.1,Stable,27,322,172,Drug metabolism (Rattus norvegicus [9]): Active; Stability (Rattus norvegicus [10]): Unstable; Activity (Rattus norvegicus [12]): 59%; Drug metabolism (Plasma [13]): Active; Stability (Rattus norvegicus [14]): Unstable; Drug metabolism (Rattus norvegicus [15]): Active; Drug metabolism (Rattus norvegicus [16]): Active; Drug metabolism (Rattus norvegicus [17]): Not Active; Drug metabolism (Plasma [18]): Active
CC(=O)[C@H]1CC[C@H]2[C@@H]3CCC4=CC(=O)CC[C@]4(C)[C@H]3CC[C@]12C [PROGESTERONE],> 240,,4,< 25,< 25,Activity (Rattus norvegicus [12]): 62%; half-life [21]: 0.417 h; Activity [22]: 42%
